Test results: ChEMBL document CHEMBL1201862, “PubChem BioAssay data set” (2004)
Where “and” joins values, the source holds several entries; their conditions need not be identical. Equal entries are not always repeated. Calls of active or inactive are those of the source.

Assays:
[1] = target: G-protein coupled receptor 183 (Homo sapiens, UniProt P32249); assay: SAR confirmation of small molecule antagonists of the EBI2 receptor via a luminescent beta-arrestin assa.; format: functional
[2] = microbe, parasite or virus in culture; format: functional; settings: Mycobacterium tuberculosis
[3] = viability of uninfected HEp-2 cells – cell-based, HTS, cytotoxicity control for RSV inhibitor project, dose response (AID 2410); format: functional; settings: human respiratory syncytial virus
[4] = Luminescent dose response cell-based high throughput screening assay for inhibitors of the Janus kinase 2 mutant JAK2V617F. [Related pubchem assays: 1446 (Primary screen.), 1521 (Confirmation assay.), 1486 (Counter screen.)]; format: functional
[5] = target: RNA-editing ligase 1, mitochondrial (Trypanosoma brucei brucei, UniProt P86926); assay: inhibition of trypanosome RNA editing ligase – biochemical, fluorescence, Trypanosoma brucei, dose response (AID 1117295); format: functional
Sequence of RNA-editing ligase 1, mitochondrial (P86926 whole entry): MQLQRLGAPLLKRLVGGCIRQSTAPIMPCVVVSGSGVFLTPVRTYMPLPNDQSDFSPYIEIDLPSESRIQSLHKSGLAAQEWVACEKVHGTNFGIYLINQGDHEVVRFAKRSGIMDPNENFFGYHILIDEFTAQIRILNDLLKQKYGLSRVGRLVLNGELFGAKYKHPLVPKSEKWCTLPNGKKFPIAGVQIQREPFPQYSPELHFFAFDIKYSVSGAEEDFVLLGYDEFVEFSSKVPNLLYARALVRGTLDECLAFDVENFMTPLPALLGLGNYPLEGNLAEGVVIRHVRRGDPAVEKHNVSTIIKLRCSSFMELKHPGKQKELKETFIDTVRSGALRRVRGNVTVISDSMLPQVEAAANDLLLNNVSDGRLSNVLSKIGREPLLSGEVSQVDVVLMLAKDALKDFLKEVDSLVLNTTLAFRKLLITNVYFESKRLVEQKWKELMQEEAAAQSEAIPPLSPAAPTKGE

[6] = target: T1, Apoptotic protease-activating factor 1 (Homo sapiens, UniProt O14727); format: functional
T1 sequence (O14727 whole entry): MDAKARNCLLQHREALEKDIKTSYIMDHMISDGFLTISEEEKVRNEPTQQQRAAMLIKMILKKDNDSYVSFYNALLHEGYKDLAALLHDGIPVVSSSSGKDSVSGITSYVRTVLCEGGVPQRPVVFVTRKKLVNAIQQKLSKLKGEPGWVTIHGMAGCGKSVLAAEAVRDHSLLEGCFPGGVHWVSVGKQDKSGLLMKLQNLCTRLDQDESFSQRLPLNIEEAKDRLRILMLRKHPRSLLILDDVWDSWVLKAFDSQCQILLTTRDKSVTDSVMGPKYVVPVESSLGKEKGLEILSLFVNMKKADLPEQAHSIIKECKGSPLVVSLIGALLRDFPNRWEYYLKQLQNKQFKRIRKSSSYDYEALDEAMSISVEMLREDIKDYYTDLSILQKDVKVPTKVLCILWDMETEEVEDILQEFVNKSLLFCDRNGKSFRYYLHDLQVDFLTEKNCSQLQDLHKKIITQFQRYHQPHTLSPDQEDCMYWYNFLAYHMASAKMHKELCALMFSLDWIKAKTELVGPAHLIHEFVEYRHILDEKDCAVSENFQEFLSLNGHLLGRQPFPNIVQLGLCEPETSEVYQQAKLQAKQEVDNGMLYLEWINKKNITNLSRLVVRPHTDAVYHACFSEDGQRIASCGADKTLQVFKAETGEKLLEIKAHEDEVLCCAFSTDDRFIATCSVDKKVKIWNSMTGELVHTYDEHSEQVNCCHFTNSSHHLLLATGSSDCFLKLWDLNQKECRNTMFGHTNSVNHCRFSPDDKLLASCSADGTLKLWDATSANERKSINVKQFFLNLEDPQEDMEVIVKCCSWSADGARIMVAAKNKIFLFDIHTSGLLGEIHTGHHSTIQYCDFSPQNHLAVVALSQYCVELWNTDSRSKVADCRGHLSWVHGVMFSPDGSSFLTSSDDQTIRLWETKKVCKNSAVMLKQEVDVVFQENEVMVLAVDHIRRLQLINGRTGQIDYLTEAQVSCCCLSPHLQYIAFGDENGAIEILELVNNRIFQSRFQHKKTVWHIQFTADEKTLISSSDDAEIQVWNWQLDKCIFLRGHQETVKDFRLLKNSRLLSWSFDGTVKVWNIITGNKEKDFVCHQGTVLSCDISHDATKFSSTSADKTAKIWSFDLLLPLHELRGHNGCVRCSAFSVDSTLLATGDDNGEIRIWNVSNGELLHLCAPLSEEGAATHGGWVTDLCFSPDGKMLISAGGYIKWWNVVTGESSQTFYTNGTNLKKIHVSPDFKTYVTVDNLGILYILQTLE

[7] = target: T2, Replicative DNA helicase DnaB (Mycobacterium tuberculosis, UniProt P9WMR3); assay: DnaB intein splicing inhibitors, dose response, biochemical, cell-free fluorescence (AID 449749); format: functional
T2 sequence (P9WMR3 whole entry): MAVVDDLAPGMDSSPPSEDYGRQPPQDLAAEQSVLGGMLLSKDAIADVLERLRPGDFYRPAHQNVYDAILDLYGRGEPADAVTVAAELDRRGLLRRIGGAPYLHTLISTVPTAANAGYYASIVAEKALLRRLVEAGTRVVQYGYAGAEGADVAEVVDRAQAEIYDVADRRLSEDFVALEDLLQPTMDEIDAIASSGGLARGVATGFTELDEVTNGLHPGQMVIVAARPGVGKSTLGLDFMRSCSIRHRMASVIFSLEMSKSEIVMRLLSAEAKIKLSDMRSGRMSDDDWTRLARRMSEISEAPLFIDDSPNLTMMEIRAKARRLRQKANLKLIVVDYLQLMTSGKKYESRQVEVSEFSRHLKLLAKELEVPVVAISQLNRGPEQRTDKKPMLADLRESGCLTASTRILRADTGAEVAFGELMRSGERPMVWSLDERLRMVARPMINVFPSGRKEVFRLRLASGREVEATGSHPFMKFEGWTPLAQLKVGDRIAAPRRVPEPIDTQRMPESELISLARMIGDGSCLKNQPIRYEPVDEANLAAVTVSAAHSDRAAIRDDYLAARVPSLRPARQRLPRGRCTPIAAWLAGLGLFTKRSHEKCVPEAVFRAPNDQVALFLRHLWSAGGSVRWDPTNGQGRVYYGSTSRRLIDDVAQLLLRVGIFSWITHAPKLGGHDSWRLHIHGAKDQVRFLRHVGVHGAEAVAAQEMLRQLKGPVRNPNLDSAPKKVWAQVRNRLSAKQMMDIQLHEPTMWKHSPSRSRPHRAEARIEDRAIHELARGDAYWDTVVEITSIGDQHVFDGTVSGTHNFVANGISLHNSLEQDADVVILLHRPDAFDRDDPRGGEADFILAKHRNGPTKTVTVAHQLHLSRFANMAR

[8] = target: Nonstructural protein 1 (Influenza A virus, UniProt Q194T2); format: functional, Influenza A virus (A/California/07/2009(H1N1))
Sequence of Nonstructural protein 1 (Q194T2 whole entry): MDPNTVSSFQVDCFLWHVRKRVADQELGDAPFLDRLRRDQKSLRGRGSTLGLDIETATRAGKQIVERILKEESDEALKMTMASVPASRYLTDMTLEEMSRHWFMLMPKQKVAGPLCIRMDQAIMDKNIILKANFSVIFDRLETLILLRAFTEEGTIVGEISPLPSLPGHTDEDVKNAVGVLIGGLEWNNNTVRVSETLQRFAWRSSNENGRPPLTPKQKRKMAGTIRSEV

[9] = target: Serine/threonine-protein phosphatase (Homo sapiens, UniProt Q9BPW0); assay: inhibition of protein phosphatase 5 activity – biochemical, fluorescence, dose response (AID 2395)
Sequence of Serine/threonine-protein phosphatase (Q9BPW0 whole entry): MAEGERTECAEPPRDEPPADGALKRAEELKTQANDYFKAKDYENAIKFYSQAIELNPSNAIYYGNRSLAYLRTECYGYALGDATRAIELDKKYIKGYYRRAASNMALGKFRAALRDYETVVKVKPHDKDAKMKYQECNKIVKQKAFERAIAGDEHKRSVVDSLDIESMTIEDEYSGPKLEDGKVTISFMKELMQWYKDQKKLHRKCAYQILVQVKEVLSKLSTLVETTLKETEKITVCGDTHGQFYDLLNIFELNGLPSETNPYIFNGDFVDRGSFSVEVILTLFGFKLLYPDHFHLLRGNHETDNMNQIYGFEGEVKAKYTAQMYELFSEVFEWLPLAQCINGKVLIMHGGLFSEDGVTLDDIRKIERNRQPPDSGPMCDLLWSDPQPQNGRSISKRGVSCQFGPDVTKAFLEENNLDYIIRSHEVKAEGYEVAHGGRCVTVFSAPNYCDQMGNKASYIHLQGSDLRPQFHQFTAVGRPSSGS

[10] = target: Serine/threonine-protein phosphatase PP1-alpha catalytic subunit (Homo sapiens, UniProt P62136); assay: inhibition of protein phosphatase 1 activity – biochemical, fluorescence, dose response (AID 2394)
Sequence of Serine/threonine-protein phosphatase PP1-alpha catalytic subunit (P62136 whole entry): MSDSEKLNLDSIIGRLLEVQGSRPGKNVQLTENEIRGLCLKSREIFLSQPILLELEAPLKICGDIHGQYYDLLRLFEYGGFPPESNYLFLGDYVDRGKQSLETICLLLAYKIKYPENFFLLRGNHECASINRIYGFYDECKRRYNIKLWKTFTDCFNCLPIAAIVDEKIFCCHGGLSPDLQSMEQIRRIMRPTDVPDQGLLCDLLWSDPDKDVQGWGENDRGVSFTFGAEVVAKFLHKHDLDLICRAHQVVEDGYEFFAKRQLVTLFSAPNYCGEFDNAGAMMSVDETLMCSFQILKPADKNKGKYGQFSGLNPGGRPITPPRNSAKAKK

[11] = target: T3, Protein RecA (Mycobacterium tuberculosis, UniProt P9WHJ3); assay: Fluorescence Cell-Free Homogeneous Dose Retest to Identify Inhibitors of RecA-Intein Splicing Activity. [Related pubchem assays (depositor defined):AID2097, AID2223, AID489010, AID492950]; format: functional
T3 sequence (P9WHJ3 whole entry): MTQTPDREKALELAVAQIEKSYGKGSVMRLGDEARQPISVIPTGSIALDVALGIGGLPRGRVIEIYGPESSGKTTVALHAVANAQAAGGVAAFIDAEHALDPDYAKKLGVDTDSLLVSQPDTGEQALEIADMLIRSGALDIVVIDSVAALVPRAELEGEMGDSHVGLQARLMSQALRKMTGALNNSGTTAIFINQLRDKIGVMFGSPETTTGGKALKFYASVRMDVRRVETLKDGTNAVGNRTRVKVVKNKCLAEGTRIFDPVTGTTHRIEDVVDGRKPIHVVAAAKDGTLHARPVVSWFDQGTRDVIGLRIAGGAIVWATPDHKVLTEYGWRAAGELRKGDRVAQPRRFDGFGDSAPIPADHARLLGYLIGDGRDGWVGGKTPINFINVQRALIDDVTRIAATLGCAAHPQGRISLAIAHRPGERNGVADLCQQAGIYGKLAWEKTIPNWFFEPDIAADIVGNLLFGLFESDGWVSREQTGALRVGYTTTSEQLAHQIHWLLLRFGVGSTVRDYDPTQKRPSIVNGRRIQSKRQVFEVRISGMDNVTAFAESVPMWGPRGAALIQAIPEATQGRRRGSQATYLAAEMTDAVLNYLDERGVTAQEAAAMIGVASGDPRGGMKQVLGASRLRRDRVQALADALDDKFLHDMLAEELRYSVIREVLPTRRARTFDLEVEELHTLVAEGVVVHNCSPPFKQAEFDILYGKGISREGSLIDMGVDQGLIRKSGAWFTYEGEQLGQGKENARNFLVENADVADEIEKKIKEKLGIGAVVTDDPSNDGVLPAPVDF

[12] = Luminescence Cell-Based Dose Confirmation HTS to Identify Activators of 5'UTR Stem-Loop Driven Alpha-Synuclein mRNA Translation in H4 Neuroglioblastoma Cells. [Related pubchem assays: 1829 (Project Summary), 1814 (Primary HTS)]; format: functional
[13] = Luminescence Cell-Based Dose Response HTS to Identify Activators of Luciferase Translation or Activity in H4 […] Cells. [Related pubchem assays: 1829 (Project Summary), 1814 (Primary HTS)]; format: functional
[14] = test system: H4; assay: Luminescence Cell-Based Dose Response HTS to Identify Activators of 5'UTR Stem-Loop Driven Prion Protein mRNA Translation in H4 Neuroglioblastoma Cells. [Related pubchem assays: 1829 (Project Summary), 1814 (Primary HTS)]; format: functional; settings: Homo sapiens
[15] = toxicity to human hepatoma HepG2 cells – cell-based, cherry-picked samples, cytotoxicity control, dose response (AID 1159577); format: functional
[16] = P. falciparum Dd2 growth inhibitors, dose response, SYBR Green, cherry-picked samples (AID 1159567); format: functional, cell-based
[17] = target: T4, Fibrinogen beta chain (Homo sapiens, UniProt P02675); assay: Fluorescence polarization-based biochemical high throughput dose response assay to identify inhibitors that disrupt the binding of a cyclic peptide (Tn7) to the fibrin proteolytic product D-Dimer and fragment E complex [DD(E )].
T4 sequence (P02675 whole entry): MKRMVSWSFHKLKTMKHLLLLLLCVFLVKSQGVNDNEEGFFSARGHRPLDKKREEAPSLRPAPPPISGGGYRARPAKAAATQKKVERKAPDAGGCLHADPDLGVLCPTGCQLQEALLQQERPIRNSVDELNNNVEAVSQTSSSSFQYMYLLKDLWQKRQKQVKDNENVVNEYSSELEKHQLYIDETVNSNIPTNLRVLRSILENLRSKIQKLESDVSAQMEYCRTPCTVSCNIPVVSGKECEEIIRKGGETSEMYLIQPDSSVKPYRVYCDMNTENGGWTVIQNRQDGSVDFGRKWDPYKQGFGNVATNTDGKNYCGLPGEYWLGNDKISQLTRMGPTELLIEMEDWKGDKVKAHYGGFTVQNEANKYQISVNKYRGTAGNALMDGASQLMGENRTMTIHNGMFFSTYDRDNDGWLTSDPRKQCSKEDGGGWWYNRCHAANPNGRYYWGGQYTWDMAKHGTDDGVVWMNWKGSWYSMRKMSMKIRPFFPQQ

[18] = target: T4, Fibrinogen beta chain; assay: Fluorescence polarization-based biochemical high throughput dose response assay to identify inhibitors that disrupt the binding of a cyclic peptide (Tn6) to the fibrin proteolytic product D-Dimer and fragment E complex [DD(E )].
[19] = Reduced DLD-1 viability, concentration-response, CellTiter-Glo luminescence (AID 1117352); format: functional
[20] = SNU-C1 cell viability reduction, dose response, CellTiter-Glo luminescence (AID 1117323); format: functional, cell-based
[21] = cytotoxicity toward HCT116 cells – cell-based, CellTiter-Glo luminescence, IC50, dose response (AID 1117332); format: functional; settings: HCT-116
[22] = CellTiter-Glo luminescence survival assay, SW480 colon tumor line, concentration-response curve, half-maximal inhibitory concentration (AID 1117338); format: functional
[23] = Potency on glucagon-like peptide 1 release, dose-response in NCI-H716 cell line, half maximal inhibitory concentration (AID 1117344); format: functional, cell-based
[24] = glucagon-like peptide-1 release potency in STC-1, concentration-response, half-maximal inhibitory concentration in the STC-1 line (AID 1117345); format: functional, cell-based
[25] = cytotoxicity toward Colo320 cells – cell-based, CellTiter-Glo luminescence, IC50, dose response (AID 1117334); format: functional; settings: COLO 320
[26] = target: Cytochrome P450 2D6 (Homo sapiens, UniProt P10635);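 also: CYP2D6 member of a cytochrome P450 panel assay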
Sequence of Cytochrome P450 2D6 (P10635 whole entry): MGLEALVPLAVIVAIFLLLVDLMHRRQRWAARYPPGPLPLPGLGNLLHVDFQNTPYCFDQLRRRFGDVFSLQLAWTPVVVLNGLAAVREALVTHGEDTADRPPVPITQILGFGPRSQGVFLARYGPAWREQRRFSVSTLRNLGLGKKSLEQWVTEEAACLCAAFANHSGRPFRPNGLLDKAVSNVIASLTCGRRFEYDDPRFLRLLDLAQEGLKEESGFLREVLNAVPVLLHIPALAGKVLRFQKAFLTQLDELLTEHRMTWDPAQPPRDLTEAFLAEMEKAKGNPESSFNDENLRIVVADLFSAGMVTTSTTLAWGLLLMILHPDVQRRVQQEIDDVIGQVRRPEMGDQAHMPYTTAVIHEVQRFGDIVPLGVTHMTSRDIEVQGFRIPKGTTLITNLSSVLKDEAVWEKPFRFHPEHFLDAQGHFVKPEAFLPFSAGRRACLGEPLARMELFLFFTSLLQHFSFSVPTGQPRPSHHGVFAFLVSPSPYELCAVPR

[27] = RKO cell viability reduction, dose response, CellTiter-Glo luminescence (AID 1117322); format: functional
[28] = HGIII-sPLA2 enzyme inhibition potency – biochemical, QFRET, IC50, dose response (AID 743457);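 also: green fluorescence rise as the enzyme cleaves BODIPY PC-A2 in liposomes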

Sequence of G-protein coupled receptor 183 (P32249 whole entry): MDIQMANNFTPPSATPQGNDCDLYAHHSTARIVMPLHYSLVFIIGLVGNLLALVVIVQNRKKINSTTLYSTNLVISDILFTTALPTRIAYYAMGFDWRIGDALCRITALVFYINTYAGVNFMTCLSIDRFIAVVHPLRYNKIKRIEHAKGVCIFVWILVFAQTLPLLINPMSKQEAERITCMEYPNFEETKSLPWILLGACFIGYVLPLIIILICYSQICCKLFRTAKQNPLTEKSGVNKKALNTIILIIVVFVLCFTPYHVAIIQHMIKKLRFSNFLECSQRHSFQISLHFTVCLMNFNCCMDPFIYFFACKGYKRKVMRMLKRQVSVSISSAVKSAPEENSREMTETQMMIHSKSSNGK

SMILES: Cc1cc(C)cc(CN2CCN(C(=O)/C=C/c3ccc(Br)cc3)CC2)c1
- IC50 [1]: 0.0064 µM (active)

SMILES: O=C(CCl)NCc1cc(-c2ccc(Cl)cc2)no1
- CC50 [2]: 9.8 µM (active)
- CC50 [3]: 4.01 µM (active)
- IC50 [4]: 1.23 µM (active)

SMILES: Cc1cc(O)c2c(c1)C(=O)[C@@]13C(=C(O)[C@H]4C(O)[C@@H]1[C@H]1C(O)[C@@H]3C(O)=C3C(=O)c5c(O)cc(C)cc5C(=O)[C@@]314)C2=O (stereo not given in full)
- IC50 [5]: 4.1 µM (active)

SMILES: Cc1ccc(NC2=C(N3CCOCC3)C(=O)c3ccccc3C2=O)cc1
- IC50 [6]: 19.4 µM (active)
- AC50 [7]: 10.7 µM (active)
- IC50 [8]: 7.74 µM (active)
- IC50 [9]: 20.9 µM (not active)
- IC50 [10]: > 67 µM (not active)
- EC50 [11]: 15.7 µM (active)

SMILES: O=C1C(c2ccccc2)=[N+]([O-])c2ccccc21
- EC50 [12]: 12.7 µM (active)
- IC50 [6]: 5.8 µM (active)
- EC50 [13]: 36.4 µM (active)
- IC50 [8]: 45.5 µM (active)
- IC50 [9]: 10.3 µM (not active)
- EC50 [14]: 20 µM (active)
- IC50 [10]: 2.67 µM (active)

SMILES: O=C(c1ccc(Br)cc1)N1CCN(C(=O)c2ccccc2Cl)CC1
- IC50 [1]: > 1 µM (inactive)

SMILES: CO[C@@H]1CN(C)C(=O)c2ccc(NC(=O)Nc3cccc(Cl)c3)cc2OC[C@@H](C)NC[C@H]1C
- AC50 [15]: 30.3 µM (active)
- AC50 [16]: 5.07 µM (active)

SMILES: N#C[C@H]1[C@@H](c2ccc(C#CC3CCCC3)cc2)[C@@H](CO)N1S(=O)(=O)c1ccccc1
- AC50 [15]: 24.8 µM (active)
- AC50 [16]: 3.62 µM (active)

SMILES: C[n+]1cc2c3c(ccc2c2ccc4cc5c(cc4c21)OCO5)OCO3
- IC50 [17]: > 83.1 µM (inactive)
- IC50 [18]: 24.2 µM (inactive)
- IC50 [19]: 0.576 µM (active)
- IC50 [20]: 0.316 µM (active)
- IC50 [21]: 0.525 µM (active)
- IC50 [22]: 0.379 µM (active)
- IC50 [23]: > 40 µM (inactive)
- IC50 [24]: > 40 µM (inactive)
- IC50 [25]: 0.35 µM (active)
- AC50 [26]: 31.6 µM (inconclusive) and 7.94 µM (inconclusive)
- IC50 [27]: 0.265 µM (active)
- IC50 [28]: 51.8 µM (inactive)
